Measured values reported in patent US12723063B2, “GIPR-agonist compounds” (Eli Lilly and Company, priority 2019, dated 2026).
*1 amine or outer side, *2 acyl side, *3 side chain or, on linkers, in order; H or OH if unused. Where a SMILES comes first, the peptide text is derived from it. Side-chain parts run from the residue outwards. [ ]: non-standard residue; d: D form. The star is where a group is joined. C20 diacid = O=C(O)CCCCCCCCCCCCCCCCCCC(=O)*; C18 diacid = O=C(O)CCCCCCCCCCCCCCCCC(=O)*; αMePhe(2-F) = C[C@](N)(Cc1ccccc1F)C(=O)O; γGlu = O=C(O)[C@H](CCC(=O)[*:2])N[*:1]; 4Pal = N[C@@H](Cc1ccncc1)C(=O)O; αMeL = CC(C)C[C@](C)(N)C(=O)O; AEEA = NCCOCCOCC(=O)O; Aib = CC(C)(N)C(=O)O

Assays:
human GIPR = target: T1, human GIPR (Homo sapiens, UniProt P48546); experiment: [125I]-GIP binding, SPA with WGA beads, 0.1% bacitracin; conditions: geometric mean, read-out: hGIPR Ki
T1 construct: expressed in transfected cells; crude membranes
T1 sequence (P48546 22-466): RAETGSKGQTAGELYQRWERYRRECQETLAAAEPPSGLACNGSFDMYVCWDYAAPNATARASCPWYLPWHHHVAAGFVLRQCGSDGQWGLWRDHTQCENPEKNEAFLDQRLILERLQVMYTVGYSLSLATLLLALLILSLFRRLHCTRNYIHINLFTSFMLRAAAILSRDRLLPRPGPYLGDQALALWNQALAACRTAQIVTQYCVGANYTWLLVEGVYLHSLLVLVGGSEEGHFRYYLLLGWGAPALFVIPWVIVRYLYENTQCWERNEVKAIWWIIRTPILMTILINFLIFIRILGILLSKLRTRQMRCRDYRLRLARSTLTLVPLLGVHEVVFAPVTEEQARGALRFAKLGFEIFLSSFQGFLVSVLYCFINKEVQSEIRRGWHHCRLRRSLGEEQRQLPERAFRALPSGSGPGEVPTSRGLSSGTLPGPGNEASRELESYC
How it was run: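 Ki values are geometric means (SEM, n independent days), derived from four-parameter nonlinear regression of IC50. Membranes came from hGIPR-expressing CHO cells.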

human GLP-1R = target: T2, human GLP-1R (Homo sapiens, UniProt P43220); experiment: [125I]-GLP-1 binding, SPA with WGA beads, 0.1% bacitracin; conditions: geometric mean, read-out: hGLP1R Ki
T2 construct: expressed in transfected cells; crude membranes
How it was run: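 Binding buffer was 25 mM HEPES pH 7.4 with 2.5 mM CaCl2, 1 mM MgCl2, 0.1% (w/v) bacitracin, 0.003% Tween-20 and EDTA-free protease inhibitors. Four-parameter regression gave IC50, converted to Ki (geometric mean, SEM, n independent days).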

T2 sequence (P43220 24-463): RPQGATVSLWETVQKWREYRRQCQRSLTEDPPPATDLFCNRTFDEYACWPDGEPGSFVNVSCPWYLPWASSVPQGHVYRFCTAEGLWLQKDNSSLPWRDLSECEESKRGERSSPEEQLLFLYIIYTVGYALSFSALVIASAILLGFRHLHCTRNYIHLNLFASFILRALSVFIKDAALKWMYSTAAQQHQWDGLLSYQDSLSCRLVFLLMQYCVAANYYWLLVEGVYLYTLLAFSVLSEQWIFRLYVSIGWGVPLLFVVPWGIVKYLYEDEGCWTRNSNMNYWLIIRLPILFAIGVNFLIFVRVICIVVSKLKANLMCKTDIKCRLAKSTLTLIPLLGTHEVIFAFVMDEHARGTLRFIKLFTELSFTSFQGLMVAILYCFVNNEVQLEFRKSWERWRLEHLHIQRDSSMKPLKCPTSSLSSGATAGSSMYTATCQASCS

Structure (SMILES)	Ki (human GIPR) [nM]	Ki (human GLP-1R) [nM]
CC[C@H](C)[C@H](NC(=O)[C@H](CO)NC(=O)[C@H](Cc1ccc(O)cc1)NC(=O)[C@H](CC(=O)O)NC(=O)[C@H](CO)NC(=O)[C@@H](NC(=O)[C@](C)(Cc1ccccc1F)NC(=O)[C@@H](NC(=O)CNC(=O)[C@H](CCC(=O)O)NC(=O)[C@H](C)NC(=O)[C@@H](Cc1ccc(O)cc1)NC(C)=O)[C@@H](C)O)[C@@H](C)CC)C(=O)N[C@@H](C)C(=O)N[C@@H](CC(C)C)C(=O)N[C@@H](CC(=O)O)C(=O)N[C@@H](CCCCN)C(=O)N[C@@H](CCCCNC(=O)COCCOCCNC(=O)COCCOCCNC(=O)CC[C@H](NC(=O)CCCCCCCCCCCCCCCCC(=O)O)C(=O)O)C(=O)N[C@@H](Cc1c[nH]cn1)C(=O)N[C@@H](CCC(N)=O)C(=O)NC(C)(C)C(=O)N[C@@H](CCC(=O)O)C(=O)N[C@@H](Cc1ccccc1)C(=O)N[C@H](C(=O)N[C@@H](CC(N)=O)C(=O)N[C@@H](Cc1ccc(O)cc1)C(=O)N[C@@H](CC(C)C)C(=O)N[C@@H](CC(C)C)C(=O)N[C@@H](C)C(=O)NCC(=O)NCC(=O)N1CCC[C@H]1C(=O)N[C@@H](CO)C(=O)N[C@@H](CO)C(=O)NCC(=O)N[C@@H](C)C(=O)N1CCC[C@H]1C(=O)N1CCC[C@H]1C(=O)N1CCC[C@H]1C(=O)N[C@@H](CO)C(N)=O)C(C)C [Example 30] (Ac-[dY]AEGT[αMePhe(2-F)]ISDYSIALDKK([AEEA-AEEA-γGlu-C18 diacid])HQ[Aib]EFVNYLLAGGPSSGAPPPS-NH2)	0.037	26.5
CC[C@H](C)[C@H](NC(=O)[C@H](CC(C)C)NC(=O)[C@@H](NC(=O)CNC(=O)[C@H](CCC(=O)O)NC(=O)C(C)(C)NC(=O)[C@@H](N)Cc1ccc(O)cc1)[C@@H](C)O)C(=O)N[C@@H](CO)C(=O)N[C@@H](CC(=O)O)C(=O)N[C@@H](Cc1ccc(O)cc1)C(=O)N[C@@H](CO)C(=O)N[C@H](C(=O)N[C@@](C)(CC(C)C)C(=O)N[C@@H](CC(C)C)C(=O)N[C@@H](CC(=O)O)C(=O)N[C@@H](CCCCN)C(=O)N[C@@H](CCCCNC(=O)COCCOCCNC(=O)COCCOCCNC(=O)CC[C@H](NC(=O)CCCCCCCCCCCCCCCCCCC(=O)O)C(=O)O)C(=O)N[C@@H](Cc1c[nH]cn1)C(=O)N[C@@H](CCC(N)=O)C(=O)NC(C)(C)C(=O)N[C@@H](CCC(=O)O)C(=O)N[C@@H](Cc1ccccc1)C(=O)N[C@H](C(=O)N[C@@H](CCC(=O)O)C(=O)N[C@@H](Cc1ccc(O)cc1)C(=O)N[C@@H](CC(C)C)C(=O)N[C@@H](CC(C)C)C(=O)N[C@@H](CCC(=O)O)C(=O)NCC(=O)NCC(=O)N1CCC[C@H]1C(=O)N[C@@H](CO)C(=O)N[C@@H](CO)C(=O)NCC(=O)N[C@@H](C)C(=O)N1CCC[C@H]1C(=O)N1CCC[C@H]1C(=O)N1CCC[C@H]1C(=O)N[C@@H](CO)C(N)=O)C(C)C)[C@@H](C)CC [Example 73] (H-Y[Aib]EGTLISDYSI[αMeL]LDKK([AEEA-AEEA-γGlu-C20 diacid])HQ[Aib]EFVEYLLEGGPSSGAPPPS-NH2)	0.036	117
CC[C@H](C)[C@H](NC(=O)[C@H](CO)NC(=O)[C@H](Cc1ccc(O)cc1)NC(=O)[C@H](CC(=O)O)NC(=O)[C@H](CO)NC(=O)[C@@H](NC(=O)[C@](C)(Cc1ccccc1F)NC(=O)[C@@H](NC(=O)CNC(=O)[C@H](CCC(=O)O)NC(=O)C(C)(C)NC(=O)[C@@H](N)Cc1ccc(O)cc1)[C@@H](C)O)[C@@H](C)CC)C(=O)N[C@@H](CC(C)C)C(=O)N[C@@H](CC(C)C)C(=O)N[C@@H](CC(=O)O)C(=O)N[C@@H](CCCCN)C(=O)N[C@H](C(=O)N[C@@H](Cc1c[nH]cn1)C(=O)N[C@@H](CCC(N)=O)C(=O)NC(C)(C)C(=O)N[C@@H](CC(=O)O)C(=O)N[C@@H](Cc1ccccc1)C(=O)N[C@H](C(=O)N[C@@H](CCC(=O)O)C(=O)N[C@@H](Cc1ccncc1)C(=O)N[C@@H](CCCCNC(=O)COCCOCCNC(=O)COCCOCCNC(=O)CC[C@H](NC(=O)CCCCCCCCCCCCCCCCCCC(=O)O)C(=O)O)C(=O)N[C@@H](CC(C)C)C(=O)N[C@@H](CCC(=O)O)C(=O)N[C@@H](CCC(N)=O)C(=O)NCC(=O)N1CCC[C@H]1C(=O)N[C@@H](CO)C(=O)N[C@@H](CO)C(=O)NCC(=O)N[C@@H](C)C(=O)N1CCC[C@H]1C(=O)N1CCC[C@H]1C(=O)N1CCC[C@H]1C(=O)N[C@@H](CO)C(N)=O)C(C)C)[C@@H](C)CC [Example 121] (H-Y[Aib]EGT[αMePhe(2-F)]ISDYSILLDKIHQ[Aib]DFVE[4Pal]K([AEEA-AEEA-γGlu-C20 diacid])LEQGPSSGAPPPS-NH2)	0.103	> 912
CC[C@H](C)[C@H](NC(=O)[C@H](CO)NC(=O)[C@H](Cc1ccc(O)cc1)NC(=O)[C@H](CC(=O)O)NC(=O)[C@H](CO)NC(=O)[C@@H](NC(=O)[C@H](Cc1ccccc1)NC(=O)[C@@H](NC(=O)CNC(=O)[C@H](CCC(=O)O)NC(=O)[C@@H](C)NC(=O)[C@@H](N)Cc1ccc(O)cc1)[C@@H](C)O)[C@@H](C)CC)C(=O)N[C@@H](CC(C)C)C(=O)N[C@@H](CC(C)C)C(=O)N[C@@H](CC(=O)O)C(=O)N[C@@H](CCCCN)C(=O)N[C@@H](CCCCNC(=O)COCCOCCNC(=O)COCCOCCNC(=O)CC[C@H](NC(=O)CCCCCCCCCCCCCCCCC(=O)O)C(=O)O)C(=O)N[C@@H](C)C(=O)N[C@@H](CCC(N)=O)C(=O)NC(C)(C)C(=O)N[C@@H](CCC(=O)O)C(=O)N[C@@H](Cc1ccccc1)C(=O)N[C@H](C(=O)N[C@@H](CCC(=O)O)C(=O)N[C@@H](Cc1c[nH]c2ccccc12)C(=O)N[C@@H](CC(C)C)C(=O)N[C@@H](CC(C)C)C(=O)N[C@@H](C)C(=O)NCC(=O)NCC(=O)N1CCC[C@H]1C(=O)N[C@@H](CO)C(=O)N[C@@H](CO)C(=O)NCC(=O)N[C@@H](C)C(=O)N1CCC[C@H]1C(=O)N1CCC[C@H]1C(=O)N1CCC[C@H]1C(=O)N[C@@H](CO)C(N)=O)C(C)C [Example 29] (H-Y[dA]EGTFISDYSILLDKK([AEEA-AEEA-γGlu-C18 diacid])AQ[Aib]EFVEWLLAGGPSSGAPPPS-NH2)	0.0569	22.7
CC[C@H](C)[C@H](NC(=O)[C@H](CO)NC(=O)[C@H](Cc1ccc(O)cc1)NC(=O)[C@H](CC(=O)O)NC(=O)[C@H](CO)NC(=O)[C@@H](NC(=O)[C@H](Cc1ccccc1)NC(=O)[C@@H](NC(=O)CNC(=O)[C@H](CCC(=O)O)NC(=O)[C@@H](C)NC(=O)[C@@H](N)Cc1ccc(O)cc1)[C@@H](C)O)[C@@H](C)CC)C(=O)N[C@@H](CC(C)C)C(=O)N[C@@H](CC(C)C)C(=O)N[C@@H](CC(=O)O)C(=O)N[C@@H](CCCCN)C(=O)N[C@@H](CCCCNC(=O)COCCOCCNC(=O)COCCOCCNC(=O)CC[C@H](NC(=O)CCCCCCCCCCCCCCCCC(=O)O)C(=O)O)C(=O)N[C@@H](C)C(=O)N[C@@H](CCC(N)=O)C(=O)NC(C)(C)C(=O)N[C@@H](CC(=O)O)C(=O)N[C@@H](Cc1ccccc1)C(=O)N[C@H](C(=O)N[C@@H](CC(N)=O)C(=O)N[C@@H](Cc1ccncc1)C(=O)N[C@@H](CC(C)C)C(=O)N[C@@H](CC(C)C)C(=O)N[C@@H](C)C(=O)N[C@@H](CCC(N)=O)C(=O)NCC(=O)N1CCC[C@H]1C(=O)N[C@@H](CO)C(=O)N[C@@H](CO)C(=O)NCC(=O)N[C@@H](C)C(=O)N1CCC[C@H]1C(=O)N1CCC[C@H]1C(=O)N1CCC[C@H]1C(=O)N[C@@H](CO)C(N)=O)C(C)C [Example 18] (H-Y[dA]EGTFISDYSILLDKK([AEEA-AEEA-γGlu-C18 diacid])AQ[Aib]DFVN[4Pal]LLAQGPSSGAPPPS-NH2)	0.0331	158
CC[C@H](C)[C@H](NC(=O)[C@H](CO)NC(=O)[C@H](Cc1ccc(O)cc1)NC(=O)[C@H](CC(=O)O)NC(=O)[C@H](CO)NC(=O)[C@@H](NC(=O)[C@H](Cc1ccccc1)NC(=O)[C@@H](NC(=O)CNC(=O)[C@H](CCC(=O)O)NC(=O)[C@@H](C)NC(=O)[C@@H](N)Cc1ccc(O)cc1)[C@@H](C)O)[C@@H](C)CC)C(=O)N[C@@H](CC(C)C)C(=O)N[C@@H](CC(C)C)C(=O)N[C@@H](CC(=O)O)C(=O)N[C@@H](CCCCN)C(=O)N[C@@H](CCCCNC(=O)COCCOCCNC(=O)COCCOCCNC(=O)CC[C@H](NC(=O)CCCCCCCCCCCCCCCCCCC(=O)O)C(=O)O)C(=O)N[C@@H](C)C(=O)N[C@@H](CCC(N)=O)C(=O)N[C@@H](CCC(N)=O)C(=O)N[C@@H](CC(=O)O)C(=O)N[C@@H](Cc1ccccc1)C(=O)N[C@H](C(=O)N[C@@H](CC(N)=O)C(=O)N[C@@H](Cc1c[nH]c2ccccc12)C(=O)N[C@@H](CC(C)C)C(=O)N[C@@H](CC(C)C)C(=O)N[C@@H](C)C(=O)N[C@@H](CCC(N)=O)C(=O)NCC(=O)N1CCC[C@H]1C(=O)N[C@@H](CO)C(=O)N[C@@H](CO)C(=O)NCC(=O)N[C@@H](C)C(=O)N1CCC[C@H]1C(=O)N1CCC[C@H]1C(=O)N1CCC[C@H]1C(=O)N[C@@H](CO)C(N)=O)C(C)C [Example 11] (H-Y[dA]EGTFISDYSILLDKK([AEEA-AEEA-γGlu-C20 diacid])AQQDFVNWLLAQGPSSGAPPPS-NH2)	0.0584	85.9
